What was measured:
PDE10A = target: T1, PDE10A (Homo sapiens, UniProt Q9Y233); assay: PDE10A purified enzyme activity assay (BPS Bioscience); format: biochemical; conditions: dose response analysis
T1 construct: purchased BPS Bioscience
Text: We therefore defined the structure activity relationship (SAR) of PPV relative to two assays: inhibition of cellular OCR by Seahorse XE assay, and inhibition of PDE10A by purified enzyme activity (PDE10A activity assay, BPS Bioscience). […] Because the top portion of PPV was a planar structure like that of rotenone, we decided to focus our attention on the lower portion of the molecule.

MC38 colorectal tumor = assay: MC38 colorectal tumors in C57Bl6 mice, sensitization to anti PD-1; format: in vivo, mouse
Description: MC38 tumors grown in C57B16 mice were treated as indicated with irrelevant antibody, anti PD-1, or anti PD-1 after PPV or SMV32 n=5-7, P=<0.05* for PPV and <0.01** for SMV32.
Papaverine and SMV32 enhance PD-1 checkpoint blockade immunotherapy for cancer treatment. Because of the literature describing the immunomodulatory effects of hypoxia^(24-27), we hypothesized that reducing hypoxia may also enhance tumor lymphocyte infiltration and function and improve immune-mediated tumor cell killing. As those of skill in the art recognize, there is a large body of literature and research on increase the supply side of the hypoxia equation, but it has been heretofore an unexpected approach to decrease the tri demand side of the hypoxia equation. We tested tumors grown from the relatively immune-sensitive syngeneic MC38 colorectal tumor line in immuno-competent C5713116 mice. […] In a second cohort, we implanted 1×10^6 cells/mouse and after 5 days, when tumors were 50-100 mm^3, they were randomized into four groups. Therapy was started with either control rat IgG antibody, or a suboptimal dose of anti PD-1(CD279) blocking monoclonal antibody (BioXCell, clone 29F.1A12, 100 μg ip every 3 days).

CMT167 flank lung tumors = CMT167 flank lung tumors in C57Bl6 mice, sensitization to anti PD-1; format: in vivo, mouse; conditions: given 16 hours prior to sub-optimal anti-PD-1, days 10 and 13
Description: C57B16 mice bearing CMT167 flank lung tumors were treated as indicated on days 10 and 13 and relative volume followed.
There are reports in the literature indicating ways that hypoxia affects immune functions of lymphocytes, MDSCs and T regulatory cells infiltrating in the tumor.

LLC tumor = assay: Lewis Lung Carcinoma (LLC) PD-1 blockade resistant tumor model; format: in vivo, mouse; conditions: treated on days 5, 8
Description: LLC tumor bearing mice were treated as indicated on days 5, 8 and relative growth followed. P=NS for PD-1 vs PPV->PD1, 0.04 for PD-i vs SMV32->PD-1.
Finally, as a rigorous test of anti-hypoxia agents as immuno-sensitizers of model tumors grown in mice, we next tested the PD-1 blockade resistant tumor model Lewis Lung Carcinoma (LLC). These tumors have been reported to be refractory to even full dose (200 ug/mouse) PD-1 blocking antibody.

MP2 pODD flank tumors = assay: in vivo bioluminescent imaging, heterotopic MP2 pODD flank tumors; set-up: species or system mouse; conditions: intraperitoneal delivery of 2 mg/kg
Description: In vivo bioluminescent imaging. […] For heterotopic flank tumor experiments, 1×10^6 HeLa pODD or 5×10^6 MP2 cells were injected subcutaneously (s.c.) into the flanks of 6-wk-old female (HeLa pODD) or male (N1P2 pODD or MP2 CMV) immunocompromised athymic nu/nu mice. Replicate experiments with groups of 4-6 mice were used for statistical reproducibility. Caliper measurements of opposing diameters were used to calculate the tumor volumes using the modified ellipsoidal formula: tumor volume=(length×width^2)[23]. Upon reaching 100 mm^3, the animals were given 100 mg/kg D-luciferin intraperitoneally and bioluminescence images were captured using IVIS In Vivo Imaging System Lumina II (Perkin Elmer Inc). […] Bioluminescent data were analyzed using living Image software (Perkin Elmer Inc) and calculated as photon flux/sec. Obtained individual photon flux peak values were then normalized to baseline for each mouse and averaged per group. Gas inhalation experiments were performed by switching medical air and carbogen gas sources for the IVIS anesthesia vaporizer. Initial baselines were established in medical air under anesthesia, then the mice were subjected to 30 minutes of either medical air or carbogen rebreathing in an air-tight chamber while awake. After 30 minutes, photon flux was established in respective gas sources as a carrier for isoflurane anesthesia.

[1] = test system: orthotopic MP2 pODD tumors; assay: in vivo bioluminescent imaging, orthotopic MP2 pODD tumors; set-up: species or system mouse; conditions: tail vein injection
Description: (§1) Orthotopic Panreatic Xenografts. MP2 PD AC cells (1×10^6) or the indicated derivates were implanted in immune-deficient athymic nu/nu mice following fACLIC approved protocols. Briefly, an incision was placed in the right flank of anesthetized animals the spleen and pancreas liberated. Cells were mixed 1:1 with Matfigel and implanted in the tail of the pancreas in 10 μl. Incision was sutured in 2 layers, animals given long lasting analgesics, and allowed to recover from anesthesia. Mice were returned to housing for post-op care and monitored daily for 4 days. Animals were checked weekly after that by palpation to determine tumor growth.
(§2) In vivo bioluminescent imaging. All animal experiments were performed according to protocols approved by the OSU institutional IAGLIC review (protocol #201200000124-R2), with daily veterinarian observation. For heterotopic flank tumor experiments, 1×10^6 HeLa pODD or 5×10^6 MP2 cells were injected subcutaneously (s.c.) into the flanks of 6-wk-old female (HeLa pODD) or male (N1P2 pODD or MP2 CMV) immunocompromised athymic nu/nu mice. […] Mice were anesthetized with 1.5% isoflurane and bioluminescence was measured every two minutes for the period of 25 minutes to identify peak response of each mouse to D-luciferin. Bioluminescent data were analyzed using living Image software (Perkin Elmer Inc) and calculated as photon flux/sec. […]

[2] = test system: orthotopic MP2 CMV tumors; assay: in vivo bioluminescent imaging, orthotopic MP2 CMV tumors; set-up: species or system mouse; conditions: single dose of 2 mg/kg by tail vein, up to 6 hours post injection
Description: as §1, §2

HeLa pODD flank tumors = assay: in vivo bioluminescent imaging, HeLa pODD flank tumors; set-up: species or system mouse; conditions: 4 mg/kg by tail vein
Description: In vivo bioluminescent imaging. All animal experiments were performed according to protocols approved by the OSU institutional IAGLIC review (protocol #201200000124-R2), with daily veterinarian observation. For heterotopic flank tumor experiments, 1×10^6 HeLa pODD or 5×10^6 MP2 cells were injected subcutaneously (s.c.) into the flanks of 6-wk-old female (HeLa pODD) or male (N1P2 pODD or MP2 CMV) immunocompromised athymic nu/nu mice. Replicate experiments with groups of 4-6 mice were used for statistical reproducibility. Caliper measurements of opposing diameters were used to calculate the tumor volumes using the modified ellipsoidal formula: tumor volume=(length×width^2)[23]. Upon reaching 100 mm^3, the animals were given 100 mg/kg D-luciferin intraperitoneally and bioluminescence images were captured using IVIS In Vivo Imaging System Lumina II (Perkin Elmer Inc). Mice were anesthetized with 1.5% isoflurane and bioluminescence was measured every two minutes for the period of 25 minutes to identify peak response of each mouse to D-luciferin. Bioluminescent data were analyzed using living Image software (Perkin Elmer Inc) and calculated as photon flux/sec. Obtained individual photon flux peak values were then normalized to baseline for each mouse and averaged per group. […]

[3] = test system: spontaneous canine soft tissue sarcoma; assay: BOLD MRI of spontaneous canine soft tissue sarcoma; format: in vivo, dog; conditions: for fraction of tumors responding well (T2* increase): one hour
Description: BOLD MRI analysis of canine tumors. Canine patients with primary sarcomas were enrolled in a trial to evaluate the effects of papaverine delivered at a dose of 1 or 2 mg/kg using ire blood oxygen level dependent (BOLD) magnetic resonance imaging (MRI). Dogs were anesthetized with isoflurane in medical air to effect on the bed of a Philips ingenia 3.071 UR scanner. They were first imaged with T1- (TR: 700ms, TE: 9ms, resolution 0.3×0.3×3 mm) and T2-weighted (TR: 3000 ms, TE: 80ms, resolution 0.4×0.4×3 mm) scans in transaxial, coronal, and sagittal orientations to acquire data covering the extent of the tumor. BOLD data were acquired as a series of 60 repeats of a volumetric echo-planar T2-weighted sequence (TR: 3000 ms, TE: 35 ms, resolution 1.6×1.6×4 mm) collected over a period of 3 minutes. In addition, a single slice fast field echo (FIFE) sequence (resolution 0.5×0.5×4 mm) was used to acquire 8 images at echo times from 5 to 75 ms, allowing fitting of pixel T2* values. After these acquisitions, papaverine was delivered intravenously and the BOLD and FEE data were acquired again one hour post-administration. All data were analyzed using the RT Image software package. BOLD data were registered using an affine transformation and percent signal change was calculated on a per-pixel basis: T2* values were fit on a pixel-by-pixel basis using a Levenberg-Marquardt least squares fit to a monoexponential decay function.

T1 sequence (Q9Y233 whole entry): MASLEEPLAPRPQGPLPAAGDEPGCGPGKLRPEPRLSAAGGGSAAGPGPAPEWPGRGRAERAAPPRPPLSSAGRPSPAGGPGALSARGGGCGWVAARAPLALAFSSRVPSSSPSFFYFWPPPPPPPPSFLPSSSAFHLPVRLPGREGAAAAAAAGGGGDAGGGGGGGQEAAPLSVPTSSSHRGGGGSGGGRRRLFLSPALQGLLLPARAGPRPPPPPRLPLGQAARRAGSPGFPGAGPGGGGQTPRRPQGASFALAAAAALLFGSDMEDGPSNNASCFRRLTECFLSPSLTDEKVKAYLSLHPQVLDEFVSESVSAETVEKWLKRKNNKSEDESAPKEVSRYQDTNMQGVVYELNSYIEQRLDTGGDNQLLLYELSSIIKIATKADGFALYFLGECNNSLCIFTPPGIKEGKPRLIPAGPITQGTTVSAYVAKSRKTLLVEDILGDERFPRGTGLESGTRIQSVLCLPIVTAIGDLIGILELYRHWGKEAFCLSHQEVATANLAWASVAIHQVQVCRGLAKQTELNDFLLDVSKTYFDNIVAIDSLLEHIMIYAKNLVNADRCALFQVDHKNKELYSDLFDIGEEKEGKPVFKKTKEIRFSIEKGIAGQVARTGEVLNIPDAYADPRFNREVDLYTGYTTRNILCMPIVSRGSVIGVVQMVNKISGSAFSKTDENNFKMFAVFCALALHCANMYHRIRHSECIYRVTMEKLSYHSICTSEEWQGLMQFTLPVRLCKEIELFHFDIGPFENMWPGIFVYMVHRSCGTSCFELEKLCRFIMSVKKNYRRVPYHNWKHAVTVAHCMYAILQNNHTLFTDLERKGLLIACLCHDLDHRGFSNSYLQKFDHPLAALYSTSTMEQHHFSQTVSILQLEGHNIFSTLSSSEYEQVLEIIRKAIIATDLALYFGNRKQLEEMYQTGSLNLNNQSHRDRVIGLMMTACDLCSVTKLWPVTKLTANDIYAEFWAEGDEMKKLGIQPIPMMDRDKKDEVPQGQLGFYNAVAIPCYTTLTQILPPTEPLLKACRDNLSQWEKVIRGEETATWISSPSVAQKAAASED

COc1ccc(Cc2nccc3cc(OC)c(OC)cc23)cc1OC [PPV, papaverine]
PDE inhibition IC25 (PDE10A): 650 nM
effect on PD-1 blockade (MC38 colorectal tumor; 2 mg/kg iv 16 hours prior to suboptimal anti PD-1 (100 μg ip every 3 days)): enhance the effectiveness of suboptimal PD-1 blockade
tumor growth, compound alone (MC38 colorectal tumor; repeated dosing, no antibody): no effect on tumor growth
tumor growth delay (CMT167 flank lung tumors): significant tumor growth delay
therapeutic effect, compound first and PD-1 antibody second (LLC tumor): no therapeutic benefit
photon flux (MP2 pODD flank tumors): did not reduce the photon flux
reduction in photon flux compared to vehicle [1]: 45%
CMV luciferase activity vs vehicle [2]: no difference
photon flux reduction, dose comparison (HeLa pODD flank tumors): greater photon flux reduction than the 2 mg/kg dose
fraction of tumors responding well (T2* increase) ([3]; 1 mg/kg IV): 1/4
fraction of tumors responding well (T2* increase) ([3]; 2 mg/kg IV): 3/5
tumor oxygenation ([3]; 1 or 2 mg/kg IV): increases oxygenation

Source: patent US20230390277A1, “METHODS TO SENSITIZE TUMORS TO TREATMENT BY IMMUNOTHERAPY” (Ohio State Innovation Foundation, priority 2020, published 2023)
